Target: interaction between p53 and MDM2 proteins (recombinant GST-tagged MDM2) (Homo sapiens, UniProt Q00987)
Assay: ELISA of inhibition of the interaction between p53 and MDM2 (GST-tagged MDM2 binding to immobilized p53-like peptide)
Details: recombinant GST-tagged MDM2 / biotinylated p53-like peptide

Sequence of interaction between p53 and MDM2 proteins (recombinant GST-tagged MDM2) (Q00987 whole entry): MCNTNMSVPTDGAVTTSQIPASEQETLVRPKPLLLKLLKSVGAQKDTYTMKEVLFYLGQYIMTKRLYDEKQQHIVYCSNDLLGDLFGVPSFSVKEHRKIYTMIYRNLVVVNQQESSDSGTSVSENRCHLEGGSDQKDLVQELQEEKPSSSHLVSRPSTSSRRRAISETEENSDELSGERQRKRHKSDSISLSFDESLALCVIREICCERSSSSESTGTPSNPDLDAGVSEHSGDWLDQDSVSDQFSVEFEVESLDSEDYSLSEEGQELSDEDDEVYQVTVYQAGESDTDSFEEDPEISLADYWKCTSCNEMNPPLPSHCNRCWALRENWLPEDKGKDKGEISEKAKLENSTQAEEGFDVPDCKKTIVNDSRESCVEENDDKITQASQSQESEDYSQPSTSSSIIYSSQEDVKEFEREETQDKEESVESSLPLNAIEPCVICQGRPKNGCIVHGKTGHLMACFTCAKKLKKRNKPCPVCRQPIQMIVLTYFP

## COc1ccc(C2=N[C@@H](c3ccc(Cl)cc3)[C@@H](c3ccc(Cl)cc3)N2C(=O)N2CCC(N3CCCC3)CC2)c(OC(C)C)c1 [Example 5, [(4S,5R)-4,5-Bis-(4-chloro-phenyl)-2-(2-isopropoxy-4-methoxy-phenyl)-4,5-dihydro-imidazol-1-yl]-(4-pyrrolidin-1-yl-piperidin-1-yl)-methanone]
  IC50: 71 nM

— US7893278B2, “CIS-imidazolines” (Hoffman-La Roche Inc., priority 2004, dated 2011)
